# Results from US20200131196A1 (Mount Tam Therapeutics, Inc., priority 2017, published 2020).
# What was measured:
# T24 = experiment: OncoPanel cell proliferation assay, T24; format: cell-based, human; conditions: Homo sapiens, T-24, read-out: Cell Count IC50
# Method: (§1) Cells were grown in RPMI 1640, 10% FBS, 2 mM L-alanyl-L-glutamine, 1 mM Na pyruvate, or a special medium. Cells were seeded into 384-well plates and incubated in a humidified atmosphere of 5% CO2 at 37° C. Compounds were added the day following cell seeding. At the same time, a time zero untreated cell plate was generated. After a 3-day incubation period, cells were fixed and stained to allow fluorescence imaging of nuclei. Compounds (1 mM stock solutions) were serially diluted in half-log steps from the highest test concentration ([…]), and assayed over 10 concentrations with a maximum assay concentration of 0.1% DMSO. Automated fluorescence microscopy was carried out using a Molecular Devices ImageXpress Micro XL high-content imager, and images were collected with a 4× objective. 16-bit TIFF images were acquired and analyzed with MetaXpress 5.1.0.41 software.
# (§2) Cell proliferation was measured by the fluorescence intensity of an incorporated nuclear dye. The output is referred to as the relative cell count, where the measured nuclear intensity is transformed to percent of control (POC) using the following formula: […]
# (§3) Cellular response parameters were calculated using nonlinear regression to a sigmoidal single-site dose response model:
# (§4) EC50 is the test compound concentration at the curve inflection point or half the effective response (parameter C of the fitted curve solution). GI50 is the concentration needed to reduce the observed growth by half (midway between the curve maximum and the time zero value). “Cell Count Activity Area” is an estimate of the integrated area above the curve (Barretina, et al. The Cancer Cell Line Encyclopedia enables predictive modelling of anticancer drug sensitivity. Nature 483: 603-607). […] In rare instances, values <0 or >10 may be observed. […] Curve-fitting, calculations, and report generation was performed using a custom data reduction engine and MathIQ based software (AIM).
# SK-N-AS = experiment: OncoPanel cell proliferation assay, SK-N-AS; format: cell-based, human
# Method: as §1, §2, §3, §4
# MES-SA = experiment: OncoPanel cell proliferation assay, MES-SA; format: cell-based, human
# Method: as §1, §2, §3, §4
# 786-O = experiment: OncoPanel cell proliferation assay, 786-O; format: cell-based, human
# Method: as §1, §2, §3, §4
# SHP-77 = experiment: OncoPanel cell proliferation assay, SHP-77
# Method: Cells were seeded into 384-well plates and incubated in a humidified atmosphere of 5% CO2 at 37° C. Compounds were added the day following cell seeding. At the same time, a time zero untreated cell plate was generated. After a 3-day incubation period, cells were fixed and stained to allow fluorescence imaging of nuclei. Compounds (1 mM stock solutions) were serially diluted in half-log steps from the highest test concentration (1 micromol), and assayed over 10 concentrations with a maximum assay concentration of 0.1% DMSO. Automated fluorescence microscopy was carried out using a Molecular Devices ImageXpress Micro XL high-content imager, and images were collected with a 4× objective. 16-bit TIFF images were acquired and analyzed with MetaXpress 5.1.0.41 software.
# GI50 is the concentration needed to reduce the observed growth by half (midway between the curve maximum and the time zero value). […] In rare instances, values <0 or >10 may be observed. […] Curve-fitting, calculations, and report generation was performed using a custom data reduction engine and MathIQ based software (AIM).
# CML-T1 = experiment: OncoPanel cell proliferation assay, CML-T1; format: cell-based, human
# Method: as §1, §2, §3, §4
# A101D = experiment: OncoPanel cell proliferation assay, A101D; format: cell-based, human
# Method: as §1, §2, §3, §4
# [1] = Homo sapiens, read-out: Cell Count EC50
# [2] = Homo sapiens, read-out: Cell Count GI50
# [3] = Homo sapiens, read-out: Cell Count IC50
compound,measurement,setting,value
"CO[C@H]1C[C@@H]2CC[C@@H](C)[C@@](O)(O2)C(=O)C(=O)N2CCCC[C@H]2C(=O)O[C@H]([C@H](C)C[C@H]2C[C@H]3C[C@@H]2C[C@@H]3O)CC(=O)[C@H](C)/C=C(\C)[C@@H](O)[C@@H](OC)C(=O)[C@H](C)C[C@H](C)/C=C/C=C/C=C/1C [Formula II, C37-[(1R,2S,4R,5S)-5-hyhroxybicyclo[2.2.1]heptane] rapamycin]",IC50,T24,6.8 nM
same,Cell Count Activity Area,SK-N-AS,3.12
same,Relative cell count (%) Mean,SK-N-AS; 1.00E+00 microM,49.7%
same,Relative cell count (%) Mean,SK-N-AS; 1.00E-01 microM,54.0%
same,Relative cell count (%) Mean,SK-N-AS; 1.00E-02 microM,55.3%
same,Relative cell count (%) Mean,SK-N-AS; 1.00E-03 microM,77.8%
same,Relative cell count (%) Mean,SK-N-AS; 1.01E-04 microM,99.5%
same,Relative cell count (%) Mean,SK-N-AS; 3.16E-01 microM,49.5%
same,Relative cell count (%) Mean,SK-N-AS; 3.17E-02 microM,55.1%
same,Relative cell count (%) Mean,SK-N-AS; 3.17E-03 microM,70.3%
same,Relative cell count (%) Mean,SK-N-AS; 3.18E-04 microM,89.7%
same,Relative cell count (%) Mean,SK-N-AS; 3.18E-05 microM,97.7%
same,EC50,SK-N-AS; [1],1.41 nM
same,GI50,SK-N-AS; [2],4.82 nM
same,IC50,SK-N-AS; [3],422 nM
same,Cell Count Activity Area,MES-SA,4.81
same,Relative cell count (%) Mean,MES-SA; 1.00E+00 microM,26.6%
same,Relative cell count (%) Mean,MES-SA; 1.00E-01 microM,31.4%
same,Relative cell count (%) Mean,MES-SA; 1.00E-02 microM,43.5%
same,Relative cell count (%) Mean,MES-SA; 1.00E-03 microM,71.1%
same,Relative cell count (%) Mean,MES-SA; 1.01E-04 microM,107.7%
same,Relative cell count (%) Mean,MES-SA; 3.16E-01 microM,26.5%
same,Relative cell count (%) Mean,MES-SA; 3.17E-02 microM,35.6%
same,Relative cell count (%) Mean,MES-SA; 3.17E-03 microM,53.2%
same,Relative cell count (%) Mean,MES-SA; 3.18E-04 microM,90.9%
same,Relative cell count (%) Mean,MES-SA; 3.18E-05 microM,105.0%
same,EC50,MES-SA; [1],1.17 nM
same,GI50,MES-SA; [2],1.96 nM
same,IC50,MES-SA; [3],2.74 nM
same,Relative cell count (%) Mean,"786-O; 786-0, 1.00E+00 microM",36.7%
same,Relative cell count (%) Mean,"786-O; 786-0, 1.00E-01 microM",45.5%
same,Relative cell count (%) Mean,"786-O; 786-0, 1.00E-02 microM",55.7%
same,Relative cell count (%) Mean,"786-O; 786-0, 1.00E-03 microM",78.6%
same,Relative cell count (%) Mean,"786-O; 786-0, 1.01E-04 microM",92.0%
same,Relative cell count (%) Mean,"786-O; 786-0, 3.16E-01 microM",43.3%
same,Relative cell count (%) Mean,"786-O; 786-0, 3.17E-02 microM",48.2%
same,Relative cell count (%) Mean,"786-O; 786-0, 3.17E-03 microM",65.0%
same,Relative cell count (%) Mean,"786-O; 786-0, 3.18E-04 microM",80.1%
same,Relative cell count (%) Mean,"786-O; 786-0, 3.18E-05 microM",96.8%
same,Cell Count Activity Area,786-O; 786-O,4.01
same,EC50,"786-O; Homo sapiens, 786-0, 786-O, read-out: Cell Count EC50",1.59 nM
same,GI50,"786-O; Homo sapiens, 786-0, 786-O, read-out: Cell Count GI50",7.1 nM
same,IC50,"786-O; Homo sapiens, 786-0, 786-O, read-out: Cell Count IC50",16.2 nM
same,EC50,"SHP-77; Homo sapiens, SHP77, read-out: Cell Count EC50",> 1000 nM
same,GI50,"SHP-77; Homo sapiens, SHP77, read-out: Cell Count GI50",> 1000 nM
same,IC50,"SHP-77; Homo sapiens, SHP77, read-out: Cell Count IC50",> 1000 nM
same,Cell Count Activity Area,SHP-77; SHP-77,0.76
same,Relative cell count (%) Mean,"SHP-77; SHP-77, 1.00E+00 microM",67.9%
same,Relative cell count (%) Mean,"SHP-77; SHP-77, 1.00E-01 microM",79.9%
same,Relative cell count (%) Mean,"SHP-77; SHP-77, 1.00E-02 microM",96.8%
same,Relative cell count (%) Mean,"SHP-77; SHP-77, 1.00E-03 microM",96.1%
same,Relative cell count (%) Mean,"SHP-77; SHP-77, 1.01E-04 microM",95.8%
same,Relative cell count (%) Mean,"SHP-77; SHP-77, 3.16E-01 microM",75.2%
same,Relative cell count (%) Mean,"SHP-77; SHP-77, 3.17E-02 microM",88.0%
same,Relative cell count (%) Mean,"SHP-77; SHP-77, 3.17E-03 microM",92.3%
same,Relative cell count (%) Mean,"SHP-77; SHP-77, 3.18E-04 microM",90.6%
same,Relative cell count (%) Mean,"SHP-77; SHP-77, 3.18E-05 microM",98.5%
same,Cell Count Activity Area,CML-T1,3.68
same,Relative cell count (%) Mean,CML-T1; 1.00E+00 microM,44.0%
same,Relative cell count (%) Mean,CML-T1; 1.00E-01 microM,46.4%
same,Relative cell count (%) Mean,CML-T1; 1.00E-02 microM,54.5%
same,Relative cell count (%) Mean,CML-T1; 1.00E-03 microM,67.7%
same,Relative cell count (%) Mean,CML-T1; 1.01E-04 microM,96.1%
same,Relative cell count (%) Mean,CML-T1; 3.16E-01 microM,42.4%
same,Relative cell count (%) Mean,CML-T1; 3.17E-02 microM,46.2%
same,Relative cell count (%) Mean,CML-T1; 3.17E-03 microM,59.5%
same,Relative cell count (%) Mean,CML-T1; 3.18E-04 microM,78.8%
same,Relative cell count (%) Mean,CML-T1; 3.18E-05 microM,96.6%
same,EC50,CML-T1; [1],0.821 nM
same,GI50,CML-T1; [2],3.64 nM
same,IC50,CML-T1; [3],12.5 nM
same,Cell Count Activity Area,A101D,3.79
same,Relative cell count (%) Mean,A101D; 1.00E+00 microM,52.5%
same,Relative cell count (%) Mean,A101D; 1.00E-01 microM,54.3%
same,Relative cell count (%) Mean,A101D; 1.00E-02 microM,62.0%
same,Relative cell count (%) Mean,A101D; 1.00E-03 microM,75.1%
same,Relative cell count (%) Mean,A101D; 1.01E-04 microM,96.5%
same,Relative cell count (%) Mean,A101D; 3.16E-01 microM,59.6%
same,Relative cell count (%) Mean,A101D; 3.17E-02 microM,56.2%
same,Relative cell count (%) Mean,A101D; 3.17E-03 microM,71.5%
same,Relative cell count (%) Mean,A101D; 3.18E-04 microM,82.7%
same,Relative cell count (%) Mean,A101D; 3.18E-05 microM,100.8%
same,EC50,A101D; [1],0.366 nM
same,GI50,A101D; [2],1.36 nM
same,IC50,A101D; [3],56.2 nM
